# In US9974773B2, “Stabilized oxymetazoline formulations and their uses” (Allergan, Inc., priority 2014, dated 2018):
# Values joined by “and” are separate entries in the source; they are usually repeats but may differ in a detail not shown here. Equal values may be shown once. Where a name gives a salt, the structure may show the parent alone. Read-outs that look alike come from different tables or passages of the source.
# Experiments:
# [1] = test system: patients with moderate to severe facial erythema associated with rosacea; test: Facial dermal tolerability assessment; format: in vivo, human
# Description: Facial dermal tolerability assessment included the investigator's assessments (dryness and scaling of the treatment area) and the patient's assessments (stinging/burning and pruritus [itching] of skin in the application area) as described below:
# Facial dermal tolerability assessment were evaluated by investigators and patients on days 1 (pre-dose, hours 1, 2, 4, 6, 8, 10, and 12), 2 (predose), 14 (predose, hours 1, 2, 4, 6, 8, 10, and 12), 28 (pre-dose, hours 1, 2, 4, 6, 8, 10, and 12), 35, and 56. Investigator's assessments included dryness and scaling and patient's assessment included stinging/burning, and pruritus; each had 4-point scales: 0=none, 1=mild, 2=moderate, 3=severe.
# The number and percent of patients with at least a 1 severity increase (worsening) from baseline for 1 or more visits was generated by treatment group for day 1, day 14, day 28, and from day 1 through day 28. Raw values were summarized using shift tables and frequency distributions by treatment group. In addition, analyses of raw values and change from baseline at post-baseline timepoints and visits were performed using descriptive statistics. Baseline was the pre-dose assessment on day 1.
# [2] = Plasma oxymetazoline pharmacokinetics after dermal administration; format: in vivo; conditions: human, topical or ocular, repeated dermal administration, once-daily or twice-daily, read-out: effective half-life (mean), range across groups
# Description: Blood samples were drawn on days 1 and 28 at predose, 2, 4, 6, 8, 10, and 12 hours after the morning dose throughout the study. Additional trough samples were collected on days 2, 14, and 29. The final pharmacokinetic sample was collected on day 35 after all assessments were completed. Plasma was analyzed for oxymetazoline concentrations using a validated liquid chromatography-tandem mass spectrometry method with a lower limit of quantification of 10 pg/mL.
# Noncompartmental analysis was performed to determine the maximum observed plasma concentration (Cmax), corresponding time to reach maximum observed plasma concentration (Tmax), area under the plasma concentration-time curve from time 0 to time t (AUC0-t), accumulation ratio (R0), and effective half-life (Teff) of oxymetazoline in plasma. These parameters were calculated, whenever possible. […]
# At the selected timepoints, approximately 6 mL of blood was collected into prelabeled K2EDTA lavender top blood collection tubes and gently inverted at least 10 times to ensure adequate mixing of blood and anticoagulant. […] A minimum of 1.0 mL of the harvested plasma was transferred into 2 prelabeled cryovials and stored at −20° C. or below until analyzed. The samples were analyzed using a validated high performance liquid chromatography-tandem mass spectrometry (LC-MS/MS) method with a lower limit of quantitation (LLOQ) of 10 pg/mL. […]
# [3] = test system: patients with moderate to severe facial erythema associated with rosacea; format: in vivo; conditions: for Discontinued: Adverse Event: mITT
# Description: An adverse event could therefore be any unfavorable and unintended sign (including an abnormal laboratory finding), symptom, or disease temporally associated with the use of a medicinal (investigational) product, whether or not related to the medicinal (investigational) product. In addition, during the screening period, adverse events were assessed regardless of the administration of a pharmaceutical product.
# A clinical determination was made of the intensity of an adverse event. The severity assessment for a clinical adverse event was completed using the following definitions as guidelines:
# A determination was made of the relationship (if any) between an adverse event and the study drug or study procedure, as applicable. A causal relationship was present if a determination was made that there was a reasonable possibility that the adverse event may have been caused by the drug or study procedure.
# Adverse events were coded using preferred terms and primary System Organ Class (SOC) from the Medical Dictionary for Regulatory Activities (MedDRA), version 15.1. Adverse events were collected both for the screening/baseline period (which were referred to as pretreatment adverse events [PTAEs]) and for the study period after treatment was initiated (which were referred to as postbaseline adverse events; ie, adverse events with start date from study day 1 through study exit). A treatment emergent adverse event (TEAE) was defined a postbaseline adverse event where there was no PTAE of the same MedDRA preferred term or the maximum severity during the postbaseline period was more severe than the maximal severity of any PTAE of the same MedDRA preferred term.
# For each preferred term, the incidence of TEAEs was presented and summarized on a per-patient basis as follows: • by preferred term in descending order of incidence rate • by primary SOC in alphabetical order, and preferred term • by primary SOC in alphabetical order, preferred term, and severity (maximum severity)
# The maximum severity of a TEAE experienced by a patient was determined by the most severe rating recorded on the eCRF for the patient's given TEAE. The incidence of TEAEs was provided for all TEAEs regardless of causality and for treatment-related TEAEs.
# [4] = all oxymetazoline-treated patients
smiles,measurement,setting,value
"Cc1cc(C(C)(C)C)c(O)c(C)c1CC1=NCCN1 [Oxy, oxymetazoline hydrochloride]",patients with worsening of stinging/burning at the application site,"[1]; once-daily, day 1",12.8%
same,patients with worsening of stinging/burning at the application site,"[1]; once-daily, day 14",12.0%
same,patients with worsening of stinging/burning at the application site,"[1]; once-daily, day 28",6.0%
same,patients with worsening of stinging/burning at the application site,"[1]; twice-daily, day 1",10.4%
same,patients with worsening of stinging/burning at the application site,"[1]; twice-daily, day 14",8.9%
same,patients with worsening of stinging/burning at the application site,"[1]; twice-daily, day 28",1.5%
same,half-life,[2],18 to 28 h
same,Discontinued: Adverse Event,[3]; BID,6 (4.4) Number (%) of Patients
same,Discontinued: Adverse Event,[3]; QD,2 (1.5) Number (%) of Patients
same,patients who discontinued due to treatment-related application site adverse events,[3]; all Oxy-treated patients,Seven and 7 patients
same,patients with application site acne (TEAE),[3]; all Oxy-treated patients,1.50%
same,patients with contact dermatitis (TEAE),[3]; all Oxy-treated patients,2.6%
same,patients with severe treatment-related application site events,"[3]; all Oxy-treated patients, 7 severe events",3 patients
same,patients who discontinued the study due to TEAEs,[3]; [4],8 patients
same,patients with headache (TEAE),[3]; [4],4.9%
same,patients with treatment-related application site adverse events,[3]; [4],28 patients
same,patients with TEAEs,[3]; once-daily dosing,33.8%
same,patients with adverse events during the posttreatment period,[3]; once-daily dosing,8.3%
same,patients with adverse events during the treatment period,[3]; once-daily dosing,28.6%
same,patients with treatment-related TEAEs,[3]; once-daily dosing,9.8%
same,patients with discontinuation from the study due to adverse events,[3]; once-daily group,1.5%
same,patients who discontinued the study,[3]; once-daily treatment groups,3.0%
same,patients with TEAEs,[3]; twice-daily dosing,32.6%
same,patients with adverse events during the posttreatment period,[3]; twice-daily dosing,7.4%
same,patients with adverse events during the treatment period,[3]; twice-daily dosing,26.7%
same,patients with treatment-related TEAEs,[3]; twice-daily dosing,12.6%
same,patients who discontinued the study due to adverse events,[3]; twice-daily group,4.4%
same,patients who discontinued the study,[3]; twice-daily treatment groups,6.7%
